Values joined by “and” are separate entries in the source; they are usually repeats but may differ in a detail not shown here. Equal entries are not always repeated. Records with an inconclusive call do not appear. Active and inactive are the calls of the source.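 Rule for the calls: active = compounds whose fitted half-maximal concentration is at most twice their own top valid dose, with signal falling; inconclusive = flat curve with 30 to 70% inhibition, or poor fit; inactive = the rest.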
What was measured:
[1] = inhibitors of CFW-induced Rlm1 reporter, dose response, S. cerevisiae, lacZ luminescence, calcofluor white, dry powder (AID 743124); settings: S. cerevisiae Rlm1-lacZ reporter, CFW-induced, luminescence 4 h; at 35 µM (top of the series)
[2] = system: S. cerevisiae Rlm1-lacZ reporter, CFW-induced, luminescence 4 h; test: as above

Structure (SMILES)	activity change, negative = inhibition [1]	AC50 [2]
Cc1ccccc1OCCn1c(=S)[nH]c2ccccc21	-14.7% (inactive)	–
Fc1cccc2c1[nH]c(=S)n2CCOc1ccccc1	–	> 70 µM (inactive)
Cc1ccc(OCCn2c(C)nc3ccccc32)cc1	13.6% (inactive)	–
Cc1ccc(OCCn2c(=S)[nH]c3ccccc32)cc1	–	33.2 µM
COC(=O)C1=C(C)N(Cc2ccc(Cl)cc2)C(=S)NC1c1ccc(Br)cc1 (centres undefined)	0.264% (inactive)	–
S=c1[nH]c2cccc(Cl)c2n1CCOc1ccccc1	–	26.7 µM
COC(=O)C1=C(C)N(Cc2ccc(Br)cc2)C(=S)NC1c1ccc(F)cc1 (centres undefined)	–	> 70 µM (inactive)
Fc1ccccc1OCCn1c(=S)[nH]c2ccccc21	–	> 70 µM (inactive)
CCOC(=O)c1c(-c2ccc(C(C)(C)C)cc2)csc1NC(=O)CN1CCN(CC)CC1	-28.1% (inactive)	–
O=c1[nH]c2ccccc2n1CCOc1ccccc1	6.62% (inactive) and -10.4% (inactive)	–
Cc1ccc(C(C)C)c(OCCn2c(=S)[nH]c3ccccc32)c1	–	> 70 µM (inactive)
Cc1ccc(OCCn2c(SCCO)nc3ccccc32)c(C(C)C)c1	–	> 70 µM (inactive)
CCOC(=O)c1c(-c2ccc(OC)cc2)csc1NC(=O)CN(C)CC(=O)N(C)C	-25% (inactive)	–
CCOC(=O)c1c(NC(=O)CN2CCN(C)CC2)sc(C)c1-c1ccc(C)cc1	–	> 70 µM (inactive)
COC(=O)C1=C(C)N(Cc2ccccc2)C(=S)NC1c1ccc(Br)cc1 (centres undefined)	9.97% (inactive)	–
COC(=O)C1=C(C)N(Cc2ccc(Br)cc2)C(=S)NC1c1ccc(OC)cc1 (centres undefined)	1.69% (inactive)	–
S=c1[nH]c2ccccc2n1CCOc1ccccc1	–	> 70 µM (inactive)
CCOC(=O)c1c(-c2ccc(F)cc2)csc1NC(=O)CN1CCN(CC)CC1	-5.43% (inactive)	–
CCOC(=O)c1c(-c2ccc(-c3ccccc3)cc2)csc1NC(=O)CNCCN(C)C	–	> 70 µM (inactive)
CCOC(=O)c1c(-c2ccc(F)cc2)csc1NC(=O)CN1CCN(C)CC1	-6.7% (inactive)	–
COC(=O)C1=C(C)N(Cc2ccc(F)cc2)C(=S)NC1c1cccc(F)c1 (centres undefined)	–	> 70 µM (inactive)
Cc1ccc(OCCn2cnc3ccccc32)cc1	15.9% (inactive)	–
CCOC(=O)c1c(NC(=O)CNCCN(C)C)sc(C)c1-c1ccccc1	-8.38% (inactive)	–
Cc1ccc2c(c1)[nH]c(=S)n2CCOc1ccccc1	-5.38% (inactive)	–
